# From patent US20120316122A1, “PHARMACEUTICAL COMPOSITIONS FOR COMBATING THROMBOTIC DISEASES AND THEIR PREPARATION AND USES” (INSTITUTE OF RADIATION MEDICINE, ACADEMY OF MILITARY …, priority 2009, published 2012)
# Entries after “also recorded” stand apart in the source; their conditions may differ.
# Legend:
# [1] = test system: platelet aggregation induced by ADP; assay: ADP-induced maximum platelet aggregation rate after gastric administration (Example 1); assay type: in vivo, Wistar rats; conditions: 40 mg/Kg gastric once per day 7 days; blood 1 h after last dose; ADP 20 μM
# Description: Wistar rats, after 1 h of administration on the 7th day, were anesthetized by intraperitoneal injection of pentobarbital sodium (40-60 mg/kg), blood samples were collected from hearts, anti-coagulated with 3.8% sodium citrate (volume ratio: 1:9). Centrifugation was performed under 800 rpm and room temperature for 10 min to separate platelet-rich plasmas (PRP), then centrifugation was performed again under 3000 rpm and room temperature for 20 min to separate platelet-poor plasmas (PPP). Counting was performed by using F-820 blood cell counter, and PRP was adjusted with PPP to have a concentration of 3.0×10^11/L.
# (§1) Chronolog platelet aggregation analyzer test: Platelet suspension was adjusted with plasma to have a concentration of 3.0×10^11/L, the platelet to aggregation analyzer was turned on and pre-warmed for 30 min, and PPP was used as a blank control to adjust transmittance to be 100%. 450 μL of platelet suspension were taken, stirred with a stir bar and pre-warmed at 37° C. for 3 min, and separately added with inducing agent (50 μL) ADP agent (final concentration: 20 μM), then 5 min diagram was recorded, and aggregation rates at 1 min, 3 min and 5 min and the maximum aggregation rates were read.
# Blood samples were collected from heart of anaesthetized mice after 1 h of the last gastric administration of timosaponins, and analyzed to determine the rates of platelet aggregation induced by ADP (20 μM) after administration.
# [2] = test system: artery-vein bypass thrombosis; assay: Artery-vein bypass thrombosis (Example 1); assay type: in vivo, Wistar rats; conditions: 40 mg/Kg gastric once per day 7 days; bypass 15 min
# Description: The pipe was taken down after 15 min, thrombus was taken out, rolled on a wet filter paper, residual blood was removed, placed on a parchment paper and weighed to obtained its wet weight. Then, it was placed in a drying oven and dried at 60° C. for 1 h to reach a constant weight, cooled and weighed to obtain the dry weight of thrombus.
# [3] = test system: human platelet aggregation; conditions: single compounds; cited from earlier work
# blood coagulation [4] = conditions: single compounds; cited from earlier work
# platelet aggregation = assay: In vitro activity screening: platelet aggregation; assay type: cell-based
# caudal vein bleeding = assay: Caudal vein bleeding time in mice; conditions: 40 mg/Kg gastric twice per day 5 days, test 1 h after dose on 6th day
# Description: Mice were randomly divided into 7 groups: control group, aspirin group (ASP,40 mg/Kg), BII group (40 mg/Kg), AIII group (40 mg/Kg), 1:1 group (weight ratio of AIII to BII, 40 mg/Kg), 1:3 group (weight ratio of AIII to BII, 40 mg/Kg), 3:1 group (weight ratio of AIII to BII, 40 mg/Kg). Continuous gastric administration was performed for 5 days, twice per day, and the experiments were conducted after 1 h of the administration on the 6th day. The control group was administered with physiological saline of the same volume. All drug ratios were AIII to BII.
# Mice were anesthetized with pentobarbital sodium (40-60 mg/kg), placed on a worm and comfortable pad, a tail tip was cut at a place where the tail of mice had to a diameter of 2.25-2.5 mm, and immediately placed in PBS (37° C.), timing started. Hemostatic time and re-bleeding time within 10 min were observed, and the bleeding volume of mice was presumed by hemoglobin volume.
# [5] = test system: thrombotic agent consisting of collagen and adrenalin; assay: Lethal time in mice by caudal vein injection of collagen; assay type: in vivo, Kunming mice; conditions: 40 mg/Kg gastric twice per day 5 days, test 1 h after dose on 6th day; observed within 10 min
# Description: Mice were fixed on mice-fixed frame, and thrombotic agent (100 μg/mouse) consisting of collagen (0.5 mg/kg) and adrenalin (60 ug/kg) were administered by caudal vein injection. The symptoms, symptom occurrence time, and the lethal time in mice were observed within 10 min, and mice […] after 10 min were deemed as survival.
# [6] = test system: ADP-induced platelet aggregation; assay: ADP-induced platelet aggregation rate in rats after gastric administration (Example 3); assay type: in vivo, Wistar rats; conditions: aspirin 40 mg/kg gastric once per day 7 days; ADP 20 μM; in %
# Description: Wistar rats were randomly divided into 5 groups, i.e., blank control group, aspirin 40 mg/kg group, the present pharmaceutical composition 10 mg/kg, 20 mg/kg and 40 mg/kg groups, the animals of the groups were subjected to continuous gastric administration for 7 days, once per day, dose volume was 10 mL/kg, operation was conducted after 1 h of administration on the 7th day, and the blank control was administered with distilled water of the same volume. […]
# as §1, with “platelet” for “platelet to”, “on,” for “on and pre-warmed for 30 min,”
# The administration method of the present pharmaceutical composition and the grouping method were identical to that of the third part, blood samples were collected from hearts of rats on the 7th day after administration, and the ADP-induced platelet aggregation and bleeding/coagulation time (PT, TT and APTT) of the same batch were determined. […]
# blood coagulation [7] = assay: Blood coagulation parameters APTT, PT and TT in rats; assay type: in vivo, Wistar rats; conditions: aspirin group (40 mg/kg) gastric once per day 7 days
# Description: Wistar rats were randomly divided into 5 groups, i.e., blank control group, aspirin 40 mg/kg group, the present pharmaceutical composition 10 mg/kg, 20 mg/kg and 40 mg/kg groups, the animals of the groups were subjected to continuous gastric administration for 7 days, once per day, dose volume was 10 mL/kg, operation was conducted after 1 h of administration on the 7th day, and the blank control was administered with distilled water of the same volume.
# Blood samples were collected, plasmas were separated, and the operation was conducted according to the specification of kits.
# The administration method of the present pharmaceutical composition and the grouping method were identical to that of the third part, blood samples were collected from hearts of rats on the 7th day after administration, and the ADP-induced platelet aggregation and bleeding/coagulation time (PT, TT and APTT) of the same batch were determined. […] The aspirin group gave a platelet aggregation rate lower than that of the control group, to but had no significant difference.
# [8] = test system: jugular artery-vein bypass thrombosis; assay: Artery-vein bypass thrombosis in rats (Example 3); assay type: in vivo, Wistar rats; conditions: aspirin 40 mg/kg gastric once per day 7 days; bypass 20 min
# Description: Then, it was placed in a drying oven and dried at 60° C. for 1 h to reach a constant weight, cooled and weighed to obtain the dry weight of thrombus. […] The aspirin positive control group gave thrombus dry and wet weights slightly higher than those of the large dose group, and had significant difference from the control group.
# blood vessels = assay: In vitro activity screening: expanding blood vessels
# [9] = test system: rats with cerebral ischemia; conditions: rat, in vivo; cited from earlier work
Molecule,Maximum aggregation rate (%) [1] [%],Thrombus dry weight [2] [mg],Thrombus wet weight [2] [mg],activity against human platelet aggregation [3],extending blood coagulation time (blood coagulation [4]),inhibition of platelet aggregation in vitro (platelet aggregation),Bleeding volume (caudal vein bleeding) [µL],Hemostatic time (s) (caudal vein bleeding; cut-off 600 s),further results
"C[C@H]1CC[C@@]2(OC1)O[C@H]1C[C@H]3[C@@H]4CC[C@@H]5C[C@@H](O[C@@H]6O[C@H](CO)[C@H](O)[C@H](O)[C@H]6O[C@@H]6O[C@H](CO)[C@@H](O)[C@H](O)[C@H]6O)CC[C@]5(C)[C@H]4CC[C@]3(C)[C@H]1[C@@H]2C [AIII, timosaponin AIII]",39.8 ± 5.0,24.4 ± 6.30,64.29 ± 22.58,significant activity,significant activity,significantly inhibit; also recorded: significant inhibitive effect,21.3 ± 29.6,396.6 ± 208.9^★★★ s,
"CC(=O)Oc1ccccc1C(=O)O [ASP, Aspirin]",40.8 ± 7.6,25.5 ± 7.37,79.74 ± 18.95,,,,13.5 ± 13.8,277.4 ± 188.5^★★★ s,"Lethal time (s) [5]: 244.6 ± 195.3 ^★ s; PLT maximum aggregation rate [6]: 49.1 ± 4.8; Hemostatic time (caudal vein bleeding; cut-off 600 s, listed as aspirin): 277.4 ± 188.5 s; Coagulation time (s) APTT (blood coagulation [7]): 17.50 ± 2.37 s; Coagulation time (s) PT (blood coagulation [7]): 16.49 ± 2.08 s; Coagulation time (s) TT (blood coagulation [7]): 28.98 ± 0.97 s; Thrombus weight (mg) Dry weight [8]: 26.7 ± 6.4 mg; Thrombus weight (mg) Wet weight [8]: 79.7 ± 19.0 mg"
"C[C@@H](CC[C@@]1(O)O[C@H]2C[C@H]3[C@@H]4CC[C@@H]5C[C@@H](O[C@@H]6O[C@H](CO)[C@H](O)[C@H](O)[C@H]6O[C@@H]6O[C@H](CO)[C@@H](O)[C@H](O)[C@H]6O)CC[C@]5(C)[C@H]4CC[C@]3(C)[C@H]2[C@@H]1C)CO[C@@H]1O[C@H](CO)[C@@H](O)[C@H](O)[C@H]1O [BII, timosaponin BII]",50.8 ± 6.7,28.6 ± 7.82,90.39 ± 29.59,significant activity,significant activity,could not inhibit,10.7 ± 9.8,325.1 ± 200.6^★★★ s,expanding blood vessels (blood vessels): could expand blood vessels; also recorded: significant effect of expanding blood vessels; blood rheology [9]: significantly improve; cerebral edema [9]: alleviate; cerebral infarction area [9]: reduce; nervous symptoms of rats with cerebral ischemia [9]: significantly improve
CC1=C(CC[C@H](C)CO[C@@H]2O[C@H](CO)[C@@H](O)[C@H](O)[C@H]2O)O[C@H]2C[C@H]3[C@@H]4CC[C@@H]5C[C@@H](O[C@@H]6O[C@H](CO)[C@H](O)[C@H](O)[C@H]6O[C@@H]6O[C@H](CO)[C@@H](O)[C@H](O)[C@H]6O)CC[C@]5(C)[C@H]4CC[C@]3(C)[C@@H]12 [BIII],,,,significant activity,significant activity,,,,
CO[C@]1(CC[C@H](C)CO[C@@H]2O[C@H](CO)[C@@H](O)[C@H](O)[C@H]2O)O[C@H]2C[C@H]3[C@@H]4CC[C@@H]5C[C@@H](O[C@@H]6O[C@H](CO)[C@H](O)[C@H](O)[C@H]6O[C@@H]6O[C@H](CO)[C@@H](O)[C@H](O)[C@H]6O)CC[C@]5(C)[C@H]4CC[C@]3(C)[C@H]2[C@@H]1C [BI],,,,significant activity,significant activity,,,,
timosaponins Ia,,,,significant activity,significant activity,,,,
